Reference: the supplement of paper PMC10307832

Key:
Assay in all cases: relative viability (nuclei count vs DMSO), 5 days (fraction); higher = more cells survive
NCI-H2347 = system: NCI-H2347
Summary of the method: (§1)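 Lung cancer cell lines in 1536-well plates got either a single drug or a fixed anchor-drug dose together with five library-drug doses (not always all listed) in √10 steps, by pin tool, on the day after seeding. Nuclei were counted after 5 days, and relative viability is the treated-to-vehicle ratio of nuclei counts. Values are medians of duplicate plates.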

NCI-H1437 = system: NCI-H1437
Summary of the method: as §1

NCI-H2228 = system: NCI-H2228
Summary of the method: as §1

NCI-H1755 = system: NCI-H1755
Summary of the method: as §1

H3255 = system: H3255
Summary of the method: as §1

LC-2-ad = system: LC-2-ad
Summary of the method: as §1

EMC-BAC-2 = system: EMC-BAC-2
Summary of the method: as §1

NCI-H1651 = system: NCI-H1651
Summary of the method: as §1

LK-2 = system: LK-2
Summary of the method: as §1

CAL-12T = system: CAL-12T
Summary of the method: as §1

NCI-H2342 = system: NCI-H2342
Summary of the method: as §1

SK-LU-1 = system: SK-LU-1
Summary of the method: as §1

NCI-H661 = system: NCI-H661
Summary of the method: as §1

NCI-H1915 = system: NCI-H1915
Summary of the method: as §1

COR-L 105 = system: COR-L 105
Summary of the method: as §1

NCI-H1793 = system: NCI-H1793
Summary of the method: as §1

PC-3 [JPC-3] = system: PC-3 [JPC-3]
Summary of the method: as §1

NCI-H1395 = system: NCI-H1395
Summary of the method: as §1

NCI-H522 = system: NCI-H522
Summary of the method: as §1

NCI-H1944 = system: NCI-H1944
Summary of the method: as §1

NCI-H2085 = system: NCI-H2085
Summary of the method: as §1

NCI-H2087 = system: NCI-H2087
Summary of the method: as §1

## COCC1(CO)C(=O)C2CCN1CC2 (stereo unspecified) [PRIMA-1MET] + Cc1nc(Nc2ncc(C(=O)Nc3c(C)cccc3Cl)s2)cc(N2CCN(CCO)CC2)n1 [Dasatinib] (partner 0.075 µM)
NCI-H2347; first compound 0.2 µM
  relative viability: 0.766
NCI-H2347; first compound 0.6325 µM
  relative viability: 0.257
NCI-H2347; first compound 2 µM
  relative viability: 0.291
NCI-H2347; first compound 6.325 µM
  relative viability: 0.3
NCI-H2347; first compound 20 µM
  relative viability: 0.37
NCI-H1437; first compound 0.2 µM
  relative viability: 0.435
NCI-H1437; first compound 0.6325 µM
  relative viability: 0.184
NCI-H1437; first compound 2 µM
  relative viability: 0.43
NCI-H1437; first compound 6.325 µM
  relative viability: 0.405
NCI-H1437; first compound 20 µM
  relative viability: 0.286
NCI-H2228; first compound 0.2 µM
  relative viability: 0.638
NCI-H2228; first compound 0.6325 µM
  relative viability: 0.399
NCI-H2228; first compound 2 µM
  relative viability: 0.541
NCI-H2228; first compound 6.325 µM
  relative viability: 0.392
NCI-H2228; first compound 20 µM
  relative viability: 0.0268
NCI-H1755; first compound 0.2 µM
  relative viability: 0.476
NCI-H1755; first compound 0.6325 µM
  relative viability: 0.471
NCI-H1755; first compound 2 µM
  relative viability: 0.397
NCI-H1755; first compound 6.325 µM
  relative viability: 0.434
NCI-H1755; first compound 20 µM
  relative viability: 0.423
H3255; first compound 0.2 µM
  relative viability: 0.285
H3255; first compound 0.6325 µM
  relative viability: 0.439
H3255; first compound 2 µM
  relative viability: 0.487
H3255; first compound 6.325 µM
  relative viability: 0.373
H3255; first compound 20 µM
  relative viability: 0.28
LC-2-ad; first compound 0.2 µM
  relative viability: 0.346
LC-2-ad; first compound 2 µM
  relative viability: 0.472
LC-2-ad; first compound 6.325 µM
  relative viability: 0.584
LC-2-ad; first compound 20 µM
  relative viability: 0.508
EMC-BAC-2; first compound 0.2 µM
  relative viability: 0.394
EMC-BAC-2; first compound 0.6325 µM
  relative viability: 0.298
EMC-BAC-2; first compound 6.325 µM
  relative viability: 0.378
EMC-BAC-2; first compound 20 µM
  relative viability: 0.247
NCI-H1651; first compound 0.2 µM
  relative viability: 0.455
NCI-H1651; first compound 0.6325 µM
  relative viability: 0.468
NCI-H1651; first compound 2 µM
  relative viability: 0.423
NCI-H1651; first compound 6.325 µM
  relative viability: 0.415
NCI-H1651; first compound 20 µM
  relative viability: 0.432
LK-2; first compound 0.2 µM
  relative viability: 0.275
LK-2; first compound 0.6325 µM
  relative viability: 0.223
LK-2; first compound 2 µM
  relative viability: 0.329
LK-2; first compound 6.325 µM
  relative viability: 0.164
LK-2; first compound 20 µM
  relative viability: 0.116
CAL-12T; first compound 0.2 µM
  relative viability: 0.34
CAL-12T; first compound 0.6325 µM
  relative viability: 0.341
CAL-12T; first compound 2 µM
  relative viability: 0.456
CAL-12T; first compound 6.325 µM
  relative viability: 0.364
CAL-12T; first compound 20 µM
  relative viability: 0.0829
NCI-H2342; first compound 0.2 µM
  relative viability: 0.327
NCI-H2342; first compound 0.6325 µM
  relative viability: 0.305
NCI-H2342; first compound 2 µM
  relative viability: 0.347
NCI-H2342; first compound 6.325 µM
  relative viability: 0.295
NCI-H2342; first compound 20 µM
  relative viability: 0.333
SK-LU-1; first compound 0.2 µM
  relative viability: 0.192
SK-LU-1; first compound 0.6325 µM
  relative viability: 0.177
SK-LU-1; first compound 2 µM
  relative viability: 0.186
SK-LU-1; first compound 6.325 µM
  relative viability: 0.155
SK-LU-1; first compound 20 µM
  relative viability: 0.0741
NCI-H661; first compound 0.2 µM
  relative viability: 0.858
NCI-H661; first compound 0.6325 µM
  relative viability: 0.733
NCI-H661; first compound 2 µM
  relative viability: 0.89
NCI-H661; first compound 6.325 µM
  relative viability: 0.883
NCI-H661; first compound 20 µM
  relative viability: 0.796
NCI-H1915; first compound 0.2 µM
  relative viability: 0.328
NCI-H1915; first compound 0.6325 µM
  relative viability: 0.284
NCI-H1915; first compound 6.325 µM
  relative viability: 0.269
NCI-H1915; first compound 20 µM
  relative viability: 0.272
COR-L 105; first compound 0.2 µM
  relative viability: 0.346
COR-L 105; first compound 0.6325 µM
  relative viability: 0.404
COR-L 105; first compound 2 µM
  relative viability: 0.292
COR-L 105; first compound 6.325 µM
  relative viability: 0.161
COR-L 105; first compound 20 µM
  relative viability: 0.091
NCI-H1793; first compound 0.2 µM
  relative viability: 0.431
NCI-H1793; first compound 0.6325 µM
  relative viability: 0.365
NCI-H1793; first compound 6.325 µM
  relative viability: 0.404
NCI-H1793; first compound 20 µM
  relative viability: 0.35
PC-3 [JPC-3]; first compound 0.2 µM
  relative viability: 0.977
PC-3 [JPC-3]; first compound 0.6325 µM
  relative viability: 0.977
PC-3 [JPC-3]; first compound 2 µM
  relative viability: 0.96
PC-3 [JPC-3]; first compound 6.325 µM
  relative viability: 0.933
PC-3 [JPC-3]; first compound 20 µM
  relative viability: 0.971
NCI-H1395; first compound 0.2 µM
  relative viability: 0.409
NCI-H1395; first compound 0.6325 µM
  relative viability: 0.458
NCI-H1395; first compound 2 µM
  relative viability: 0.493
NCI-H1395; first compound 6.325 µM
  relative viability: 0.38
NCI-H1395; first compound 20 µM
  relative viability: 0.396
NCI-H522; first compound 0.2 µM
  relative viability: 0.797
NCI-H522; first compound 0.6325 µM
  relative viability: 0.738
NCI-H522; first compound 2 µM
  relative viability: 0.852
NCI-H522; first compound 6.325 µM
  relative viability: 0.68
NCI-H522; first compound 20 µM
  relative viability: 0.0665
NCI-H1944; first compound 0.2 µM
  relative viability: 0.225
NCI-H1944; first compound 0.6325 µM
  relative viability: 0.19
NCI-H1944; first compound 2 µM
  relative viability: 0.213
NCI-H1944; first compound 6.325 µM
  relative viability: 0.219
NCI-H1944; first compound 20 µM
  relative viability: 0.232
NCI-H2085; first compound 0.2 µM
  relative viability: 0.248
NCI-H2085; first compound 0.6325 µM
  relative viability: 0.23
NCI-H2085; first compound 2 µM
  relative viability: 0.249
NCI-H2085; first compound 6.325 µM
  relative viability: 0.248
NCI-H2085; first compound 20 µM
  relative viability: 0.192
NCI-H2087; first compound 0.2 µM
  relative viability: 0.471
NCI-H2087; first compound 0.6325 µM
  relative viability: 0.727
NCI-H2087; first compound 2 µM
  relative viability: 0.626
NCI-H2087; first compound 6.325 µM
  relative viability: 0.876
NCI-H2087; first compound 20 µM
  relative viability: 0.289
